Assay results reported in PMC10800708, “Efficacies and ADME properties of redox active methylene blue and phenoxazine analogues for use in new antimalarial triple drug combinations with amino-artemisinins” (Frontiers in Pharmacology, 2024).
Values joined by “and” are separate entries in the source; they are usually repeats but may differ in a detail not shown here. Equal entries are not always repeated. Where two headings read alike, the source gives them in different places. One block for each molecule: values may come before it.

Experiments:
[1] = tested on: Plasmodium falciparum NF54; assay: Parasite lactate dehydrogenase (pLDH) assay over 72 h, CQ-sensitive strain; type: cell-based
Experimental: (§1) The assay was performed in quadruplicate. The data were analyzed by nonlinear regression analysis using the GraphPad PRISM version 5.00 program to determine the IC50 of each compound.

[2] = tested on: Plasmodium falciparum DD2; assay: Parasite lactate dehydrogenase (pLDH) assay over 72 h, CQ-resistant strain; type: cell-based; conditions: for IC50: Plasmodium falciparum, read-out: Plasmodium falciparum IC50 DD2
Experimental: as §1

[3] = tested on: Chinese Hamster Ovary (CHO) cell line, CHO-K1; assay: MTT cytotoxicity assay; type: cell-based
Experimental: Cytotoxicity assays were conducted against the Chinese Hamster Ovary (CHO) cell line, ATCC CCL-61, strain CHO-K1. […] Cells were grown at 37°C in a humidified atmosphere of 5% CO2 and maintained by passage. Cells lines were seeded in 96-well microtitre plates at 10^4 cells/well in cell medium. […] DMSO (100 µL) was added to dissolve the MTT formazan precipitate, and the plates were gently agitated for 2 min to ensure homogeneity. Absorbance was measured at 540 nm using a Turner BioSystems, Inc. ModulusTM II Microplate Reader. The data were analyzed by nonlinear regression analysis using the GraphPad PRISM version 5.00 program to determine the IC50 of each compound.

[4] = Kinetic solubility in PBS; type: physicochemical; conditions: phosphate buffer saline (PBS), aqueous buffer, kinetic from dmso stock
Experimental: . […] The aqueous mobile phase was water with 0.1% formic acid and the organic mobile phase was acetonitrile with 0.1% formic acid. The gradient method has a flow rate of 0.8 mL/min, with a total run time of 2.5 min starting at 5% organic and increasing to 95% at 1.4 min, holding for 40 s before returning to 5% to re-equilibrate the column. • ii. Lipophilicity. Stock solutions (10 mM) of compounds were diluted to 100 μM in 96-well deep-well plate containing 300 µL of 1-octanol and 300 µL of phosphate buffer at pH 7.4. The plate was agitated on an orbital shaker at 750 rpm for 2 h. The organic and buffer layers of each well were transferred separately to a new analysis plate. The samples were analysed with the HPLC diode array detection as described for kinetic solubility. Samples from both layers were analysed to determine LogD7.4 values. • iii. Passive permeability. A parallel artificial membrane permeation assay (PAMPA) was used to assess the passive permeability of compounds with a 96-well MultiScreen filter plate ([…] pore size, Millipore). The filter plate was precoated with 5% hexadecane in hexane. Stock solutions of compounds were diluted to 1 mM in a donor buffer (pH 6.5). Lucifer yellow was added to the apical wells of the precoated MultiScreen plate containing compound donor solution. The donor buffer solutions were spiked with each test compound (1 mM). The acceptor-buffer solution was prepared by adding 10 μL DMSO to 990 μL acceptor buffer (pH 7.4) and 250 μL were added to the basolateral (acceptor) wells. The donor plate was carefully inserted into the acceptor plate and incubated at room temperature for 4 h. After the incubation period, 50 μL of samples from the acceptor plate were transferred to a round bottom 96-well plate, together with 30 μL of donor buffer for matrix matching. Theoretical equilibrium samples for each test compound were prepared by adding 150 μL of donor solutions to 250 μL acceptor solutions and left at room temperature. These theoretical equilibrium samples represent complete transfer of the compound into the donor well. For the theoretical equilibrium samples, 80 μL were added to the analysis plate. Lastly, 160 μL of the internal standard carbamazepine (0.1 μM) was added to all acceptor and equilibrium samples. A portion of the sample containing Lucifer yellow was analyzed on a BioRad iMarkTM Microplate Absorbance Reader (BioRad, Hercules, CA, United States; […]. Samples were analysed using reverse phase Gemini NX-C18 column (5 μm, 2.1 mm × 50 mm) with a Shimadzu HPLC coupled with an AB Sciex 3200 Q TRAP MS). […]. Plasma stability. Stock solutions of compounds in DMSO (10 mM) were used to spike pooled human plasma. 90 μL of each sample was transferred in duplicate to 6 different wells of a 96-deep well plate. An aliquot of each sample was immediately quenched with ice cold acetonitrile containing the internal standard carbamazepine (0.1 µM), after which the plate was incubated in a water bath (37°C for […]). Aliquots of samples were removed at 5, 15, 40, 60 and 180 min and quenched with ice cold acetonitrile. After samples of the final time point were precipitated, the supernatant was transferred to a round bottom 96-well plate for analysis by LC-MS/MS using a reverse phase Gemini NX-C18 column (5 μm, 2.1 mm × 50 mm) with a Shimadzu HPLC coupled with an AB Sciex 3200 Q TRAP MS) operated at unit resolution in the multiple reaction monitoring (MRM) mode. The aqueous phase consisted of water with 0.1% formic acid and the organic mobile phase consisted of methanol and acetonitrile (1:1, (v/v)) with 0.1% formic acid. […]. The peak area ratios were used to calculate the amount of parent compound remaining and t1/2 in plasma, using the following equations.

[5] = Plasma stability in pooled human plasma; type: in vitro ADME; conditions: 37°C
Experimental: . […] The aqueous mobile phase was water with 0.1% formic acid and the organic mobile phase was acetonitrile with 0.1% formic acid. The gradient method has a flow rate of 0.8 mL/min, with a total run time of 2.5 min starting at 5% organic and increasing to 95% at 1.4 min, holding for 40 s before returning to 5% to re-equilibrate the column. • ii. Lipophilicity. Stock solutions (10 mM) of compounds were diluted to 100 μM in 96-well deep-well plate containing 300 µL of 1-octanol and 300 µL of phosphate buffer at pH 7.4. The plate was agitated on an orbital shaker at 750 rpm for 2 h. The organic and buffer layers of each well were transferred separately to a new analysis plate. The samples were analysed with the HPLC diode array detection as described for kinetic solubility. Samples from both layers were analysed to determine LogD7.4 values. • iii. Passive permeability. A parallel artificial membrane permeation assay (PAMPA) was used to assess the passive permeability of compounds with a 96-well MultiScreen filter plate ([…] pore size, Millipore). The filter plate was precoated with 5% hexadecane in hexane. Stock solutions of compounds were diluted to 1 mM in a donor buffer (pH 6.5). Lucifer yellow was added to the apical wells of the precoated MultiScreen plate containing compound donor solution. The donor buffer solutions were spiked with each test compound (1 mM). The acceptor-buffer solution was prepared by adding 10 μL DMSO to 990 μL acceptor buffer (pH 7.4) and 250 μL were added to the basolateral (acceptor) wells. The donor plate was carefully inserted into the acceptor plate and incubated at room temperature for 4 h. After the incubation period, 50 μL of samples from the acceptor plate were transferred to a round bottom 96-well plate, together with 30 μL of donor buffer for matrix matching. Theoretical equilibrium samples for each test compound were prepared by adding 150 μL of donor solutions to 250 μL acceptor solutions and left at room temperature. These theoretical equilibrium samples represent complete transfer of the compound into the donor well. For the theoretical equilibrium samples, 80 μL were added to the analysis plate. Lastly, 160 μL of the internal standard carbamazepine (0.1 μM) was added to all acceptor and equilibrium samples. A portion of the sample containing Lucifer yellow was analyzed on a BioRad iMarkTM Microplate Absorbance Reader (BioRad, Hercules, CA, United States; […]. Samples were analysed using reverse phase Gemini NX-C18 column (5 μm, 2.1 mm × 50 mm) with a Shimadzu HPLC coupled with an AB Sciex 3200 Q TRAP MS). […]. Plasma stability. Stock solutions of compounds in DMSO (10 mM) were used to spike pooled human plasma. […]
. Plasma protein binding was determined in pooled human plasma using an ultracentrifugation method. […]

[6] = Metabolic stability in mouse liver microsomes; type: in vitro ADME
Experimental: (§2) Eq. 4 Predicted t1/2 t1/2=−0.693/λ (4) Where λ is the slope of the Ln % parent remaining vs. time curve. • v. Plasma protein binding. Plasma protein binding was determined in pooled human plasma using an ultracentrifugation method. Stock solutions of test compounds (10 mM) were diluted in phosphate buffer and spiked into plasma in deep well 96-well plates (10 µM). An aliquot of each compound was immediately precipitated with ice cold acetonitrile containing the internal standard carbamazepine (0.1 μM). These served as total concentration samples. After incubation in a water bath at 37°C for 1 h, the samples were transferred to ultracentrifuge tubes in duplicate and centrifuged for 4 h at 37°C and 30,000 g (Optima L-80XP, Beckman). Following centrifugation, the supernatant was transferred to the plate containing the total concentration samples and precipitated with ice cold acetonitrile containing the internal standard. Analyte concentrations of all compounds were determined via LC-MS/MS (reverse phase Gemini NX-C18 column and Shimadzu HPLC coupled with an AB Sciex 3200 Q TRAP MS) as described above. • vi. Metabolic stability. A 5-point metabolic stability assay in human and mouse liver microsomes were performed in duplicate in 96-well plates. […] The cofactor NADPH was added, and the reactions were subsequently stopped at time points 5, 10, 30 and 60 min by removal of an aliquot and quenching with ice cold acetonitrile containing the internal standard. The supernatant of all samples was analysed via LC-MS/MS analysis (reverse phase Gemini NX-C18 column and Shimadzu HPLC and AB Sciex 3200 Q TRAP MS) as described above.

[7] = Metabolic stability in human liver microsomes; type: in vitro ADME
Experimental: as §2

[8] = In vivo PK, iv and oral, whole blood; parameters: species or system C57BL/6 mice
Experimental: • i. Animals. […] Food and water were available ad libitum. Mice were acclimatised to the experimental environment for 4-5 days prior to initiating the experiments. • ii. Oral drug administration. AD01 and PhX6 were prepared in 100% Millipore […] prepared in an aqueous suspension of 0.5% HPMC (w/v) containing 0.2% Tween 80 (v/v). The weighed compounds were sonicated and vortexed to ensure all solutions were homogenous. […] The total volume per administration was 200 μL. Blood samples were collected post-dose in lithium heparin microvials via tail bleeding at predetermined intervals at 0.5, 1, 3, 5, 8, 10 and 24 h. Samples were gently vortexed and stored at -80°C until analysis. • iii. Intravenous administration. AD01 and PhX6 were prepared in 100% Millipore […] prepared in an organic vehicle consisting of 10% N,N-dimethylacetamide, 30% polyethylene glycol 400 (PEG), 50% polypropylene glycol (PPG) and 10% ethanol (1:3:5:1, v/v) for intravenous (iv) dosing at 10 mg/kg. The total volume of administration was 80 μL. Blood samples were collected post-dose in lithium heparin microvials via tail bleeding at predetermined intervals at 0.16, 0.5, 1, 3, 5, 8, 10 and 24 h. Samples were gently vortexed and stored at -80°C until analysis. • iv. Sample processing and analysis. […] The mixture was vortexed vigorously for 1 min, and 5 μL of the supernatant were injected onto the analytical column following centrifugation (5590 g for 5 min). A Shimadzu HPLC and reverse phase Gemini NX-C18 column coupled to an AB Sciex 3200 Q TRAP MS was operated at unit resolution in the multiple reaction monitoring (MRM) mode as described above. […] Data analysis. Drug concentration versus time plots for each compound were used to determine maximal drug concentration C max, time T max to reach C max, elimination half-life t 1/2 and the area under the concentration-time curve from time zero to infinity, AUC0-inf. From these values the PK parameters clearance CL, volume of distribution Vd and oral bioavailability BA were determined using the non-compartmental analysis Microsoft Excel Add-In PKSolver ([Zhang et al., 2010]).

[9] = C57BL/6, mouse, 10 mg/kg, mice, intravenous, whole blood
[10] = C57BL/6, mouse, whole blood, po, 5 mg/kg

Compound: C[C@H]1[C@H](N2CCS(=O)(=O)CC2)O[C@@H]2O[C@@]3(C)CC[C@H]4[C@H](C)CC[C@@H]1[C@@]24OO3 [AMS, artemisone]
IC50 ([1]; CQ-sensitive NF54, pLDH 72 h, n = 3, read-out: Plasmodium falciparum IC50 NF54): 4.5 ± 2.42 nM | Resistance index ([2]; IC50 (resistant strain)/IC50 (sensitive strain), DD2/NF54): 1.2 | IC50 ([2]; CQ-resistant DD2, pLDH 72 h, n = 3): 5.48 ± 2.03 nM | IC50 ([3]; Cricetulus griseus, CHO cells, MTT): > 249 µM | Selectivity index CHO/resistant Pf strain ([3]; cytotoxicity IC50/activity IC50, CHO/DD2): >1,000 | Selectivity index CHO/sensitive Pf strain ([3]; cytotoxicity IC50/activity IC50, CHO/NF54): >1,000

solubility at 2 h ([4]; PBS pH 2, read-out: Predicted solubility pH 2): > 150 µM | solubility at 2 h ([4]; PBS pH 6.5, read-out: Predicted solubility pH 6.5): > 150 µM | solubility at 2 h ([4]; PBS pH 7.4, read-out: Predicted solubility pH 7.4): > 150 µM | half-life [5]: > 150 min | CLint scaled [6]: 22.3 mL/min/kg | CLint scaled [7]: 4 mL/min/kg | Vd [8, 9]: 1 ± 0.16 L/kg | clearance [8, 9]: 10.2 ± 0.93 mL/min/kg | half-life ([8]; C57BL/6, mouse, whole blood, iv, 10 mg/kg, mice, intravenous, whole blood, read-out: t1/2 (converted)): 72 min | Cmax [8, 10]: 6.32 ± 1.15 µM | Tmax [8, 10]: 42 ± 7.2 min | AUC0-∞ ([8]; mice, intravenous, whole blood): 1795 ± 198 µmol·min/L | t1/2 ([8]; mice, intravenous, whole blood): 1.12 ± 0.13 h | BA ([8]; mice, oral bioavailability): 8% and 8 ± 2% | AUC0-∞ ([8]; mice, oral gavage: AD01 4.6, PhX6 4.5, DpNEt 5 mg/kg): 550 ± 148 µmol·min/L
Compound: CCNC(=S)NN=C(c1ccccn1)c1ccccn1 [DpNEt]

Compound: CCN(CC)CCCC(C)Nc1ccnc2cc(Cl)ccc12 (centres unmarked) [CQ, chloroquine, reference compound]
IC50 ([1]; NF54, 72 h, read-out: Plasmodium falciparum IC50 NF54): 9.9 ± 0.4 nM | IC50 ([2]; DD2, 72 h): 142 ± 16.8 nM
